According to patent US20250276964A1 (Novartis AG, priority 2021, published 2025):
Structures can show the parent of a compound that is named as a salt.

Target: T1, WIZ (Homo sapiens, UniProt O95785+Q96SW2)
T1 construct: expressed in transfected cells
Assay: Quantification of WIZ protein levels in HiBit tag fusion protein assay (WIZ HiBit assay in 293T cells)
Assay type: cell-based
Conditions: for % degradation of WIZ (100-Amax) / Dmax at 25 µM: 100 minus Amax at 25 uM; for WIZ Amax / remaining activity at 25 µM: DMSO-normalized, curve-fitted percentage of WIZ-HiBit remaining at 25 uM; for DC50: WIZ HiBit assay in 293T cells, 10-point, 5-fold dilution, highest concentration 25 μM, about 18 hours, read-out: WIZ AC50; for Dmax at 25 µM / remaining activity at 25 µM: HEK-293T; for Dmax at 25 µM: read-out: % degradation of WIZ (100-Amax); for remaining activity at 25 µM: read-out: WIZ Amax
Method in brief: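 293T cells stably carrying single-copy HiBit-WIZ (HSVTK promoter) treated ~18 h at 37 °C with 10-point, 5-fold dilutions, top 25 μM. Lytic HiBit luminescence read; Amax is DMSO-normalised, curve-fitted % WIZ-HiBit remaining at 25 uM.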

T1 sequence (O95785 whole entry): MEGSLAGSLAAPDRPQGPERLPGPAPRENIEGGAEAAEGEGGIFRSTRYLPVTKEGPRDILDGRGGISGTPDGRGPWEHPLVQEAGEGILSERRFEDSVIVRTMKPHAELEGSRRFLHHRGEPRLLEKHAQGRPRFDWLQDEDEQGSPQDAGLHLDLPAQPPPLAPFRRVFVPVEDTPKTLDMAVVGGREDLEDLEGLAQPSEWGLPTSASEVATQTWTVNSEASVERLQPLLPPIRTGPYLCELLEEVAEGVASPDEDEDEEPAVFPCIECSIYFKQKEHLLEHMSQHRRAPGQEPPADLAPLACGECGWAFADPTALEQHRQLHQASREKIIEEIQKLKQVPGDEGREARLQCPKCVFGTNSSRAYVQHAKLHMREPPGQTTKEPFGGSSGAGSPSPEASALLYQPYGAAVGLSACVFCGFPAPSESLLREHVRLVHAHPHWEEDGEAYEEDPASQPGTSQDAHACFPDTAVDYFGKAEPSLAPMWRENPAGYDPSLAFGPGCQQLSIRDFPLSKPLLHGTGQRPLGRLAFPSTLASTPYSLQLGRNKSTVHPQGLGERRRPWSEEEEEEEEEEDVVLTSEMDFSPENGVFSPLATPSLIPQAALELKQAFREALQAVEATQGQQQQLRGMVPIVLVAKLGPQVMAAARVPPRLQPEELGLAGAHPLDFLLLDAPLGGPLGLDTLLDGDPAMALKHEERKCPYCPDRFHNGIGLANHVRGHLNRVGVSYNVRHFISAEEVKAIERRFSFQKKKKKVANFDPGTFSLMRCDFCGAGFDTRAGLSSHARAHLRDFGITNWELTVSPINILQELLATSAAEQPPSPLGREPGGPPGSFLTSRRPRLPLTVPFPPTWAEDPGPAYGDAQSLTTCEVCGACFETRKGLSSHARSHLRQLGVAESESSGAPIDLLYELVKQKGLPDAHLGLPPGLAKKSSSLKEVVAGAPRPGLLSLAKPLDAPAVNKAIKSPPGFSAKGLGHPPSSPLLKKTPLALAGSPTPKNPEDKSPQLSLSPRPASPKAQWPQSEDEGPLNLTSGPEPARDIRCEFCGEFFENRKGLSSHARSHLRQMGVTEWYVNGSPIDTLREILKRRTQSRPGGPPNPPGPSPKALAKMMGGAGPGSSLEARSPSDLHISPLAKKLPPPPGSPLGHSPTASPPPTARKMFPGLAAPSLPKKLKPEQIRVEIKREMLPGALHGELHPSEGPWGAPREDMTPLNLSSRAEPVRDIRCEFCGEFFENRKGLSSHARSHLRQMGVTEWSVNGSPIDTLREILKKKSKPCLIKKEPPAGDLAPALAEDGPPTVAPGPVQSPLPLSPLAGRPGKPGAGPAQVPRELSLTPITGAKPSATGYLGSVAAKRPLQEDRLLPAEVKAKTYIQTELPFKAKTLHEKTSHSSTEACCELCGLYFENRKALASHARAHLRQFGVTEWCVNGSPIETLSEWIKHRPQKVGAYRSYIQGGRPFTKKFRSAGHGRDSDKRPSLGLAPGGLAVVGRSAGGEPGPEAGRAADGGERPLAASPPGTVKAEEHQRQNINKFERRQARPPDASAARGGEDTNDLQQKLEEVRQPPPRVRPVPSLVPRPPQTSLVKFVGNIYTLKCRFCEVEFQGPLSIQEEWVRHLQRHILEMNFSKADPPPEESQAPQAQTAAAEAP
T1 sequence (Q96SW2 whole entry): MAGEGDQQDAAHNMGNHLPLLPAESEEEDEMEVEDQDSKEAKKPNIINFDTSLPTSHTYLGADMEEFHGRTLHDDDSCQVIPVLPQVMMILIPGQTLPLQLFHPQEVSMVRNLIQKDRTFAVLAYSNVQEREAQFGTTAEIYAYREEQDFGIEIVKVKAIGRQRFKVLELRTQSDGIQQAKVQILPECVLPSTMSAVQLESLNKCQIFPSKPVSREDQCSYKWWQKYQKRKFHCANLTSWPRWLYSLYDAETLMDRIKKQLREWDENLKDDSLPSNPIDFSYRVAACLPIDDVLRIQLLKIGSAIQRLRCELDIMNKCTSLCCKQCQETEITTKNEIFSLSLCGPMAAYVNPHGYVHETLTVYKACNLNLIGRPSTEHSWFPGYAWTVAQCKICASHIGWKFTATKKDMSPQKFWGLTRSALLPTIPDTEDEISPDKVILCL
T1 sequence (Q16531 whole entry partner): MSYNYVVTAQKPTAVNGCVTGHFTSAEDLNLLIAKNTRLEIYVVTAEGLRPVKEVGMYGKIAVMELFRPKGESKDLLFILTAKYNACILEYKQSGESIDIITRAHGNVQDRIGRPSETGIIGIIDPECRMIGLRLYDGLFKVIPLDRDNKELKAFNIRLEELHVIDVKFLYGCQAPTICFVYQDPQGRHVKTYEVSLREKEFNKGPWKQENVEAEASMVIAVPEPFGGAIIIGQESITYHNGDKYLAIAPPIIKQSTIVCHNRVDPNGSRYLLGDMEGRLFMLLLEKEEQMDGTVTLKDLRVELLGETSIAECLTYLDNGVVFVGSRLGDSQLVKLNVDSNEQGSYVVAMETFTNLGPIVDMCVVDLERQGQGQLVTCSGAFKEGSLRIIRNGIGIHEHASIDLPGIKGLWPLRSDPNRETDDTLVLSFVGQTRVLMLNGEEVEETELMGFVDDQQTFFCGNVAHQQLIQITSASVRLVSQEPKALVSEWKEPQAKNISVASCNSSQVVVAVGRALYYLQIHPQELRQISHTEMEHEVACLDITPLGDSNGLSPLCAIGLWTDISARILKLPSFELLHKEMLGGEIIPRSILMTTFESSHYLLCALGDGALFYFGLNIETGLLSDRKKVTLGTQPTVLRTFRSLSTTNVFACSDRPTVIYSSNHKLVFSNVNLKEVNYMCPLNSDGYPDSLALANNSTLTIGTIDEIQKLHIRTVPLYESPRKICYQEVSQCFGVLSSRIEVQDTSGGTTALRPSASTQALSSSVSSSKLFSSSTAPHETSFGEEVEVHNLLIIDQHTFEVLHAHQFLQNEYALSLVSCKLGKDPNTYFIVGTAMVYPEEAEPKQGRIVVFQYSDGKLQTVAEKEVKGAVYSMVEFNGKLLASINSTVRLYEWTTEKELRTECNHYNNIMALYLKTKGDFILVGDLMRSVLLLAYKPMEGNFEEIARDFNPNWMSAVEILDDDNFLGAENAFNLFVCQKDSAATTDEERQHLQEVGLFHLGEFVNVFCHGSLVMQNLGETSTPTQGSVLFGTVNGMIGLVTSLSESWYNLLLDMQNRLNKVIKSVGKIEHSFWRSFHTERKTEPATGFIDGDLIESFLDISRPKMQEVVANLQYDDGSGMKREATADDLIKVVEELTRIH

| DC50 [µM] | Dmax at 25 µM [%] | remaining activity at 25 µM [%] | Compound | % degradation of WIZ (100-Amax) [%] | WIZ Amax [%] |
| --- | --- | --- | --- | --- | --- |
| 0.134 |  |  | CS(=O)(=O)N1CC2CCC1CN2Cc1ccc2onc(N3CCC(=O)NC3=O)c2c1 (single isomer, unassigned) [Example 126, 1-(5-((5-(methylsulfonyl)-2,5-diazabicyclo[2.2.2]octan-2-yl)methyl)benzo[d]isoxazol-3-yl)dihydropyrimidine-2,4(1H,3H)-dione] | 83 | 17 |
| 0.045 | 87 | 13 | O=C1CCN(c2noc3ccc(CN4CCN5[C@@H](CCS5(=O)=O)C4)cc23)C(=O)N1 [Example 112, (S)-1-(5-((1,1-dioxidohexahydro-5H-isothiazolo[2,3-a]pyrazin-5-yl)methyl)benzo[d]isoxazol-3-yl)dihydropyrimidine-2,4(1H,3H)-dione] |  |  |
| 0.0069 | 91 | 9 | C[C@H]1CN(Cc2ccc3onc(N4CCC(=O)NC4=O)c3c2)CCN1CC1CCOCC1 [Example 31, (S)-1-(5-((3-methyl-4-((tetrahydro-2H-pyran-4-yl)methyl)piperazin-1-yl)methyl)benzo[d]isoxazol-3-yl)dihydropyrimidine-2,4(1H,3H)-dione] |  |  |
| 0.032 | 88 | 12 | CC(C)CN1CCN(Cc2ccc3onc(N4CCC(=O)NC4=O)c3c2)[C@H](C)C1 [Example 33, (R)-1-(5-((4-isobutyl-2-methylpiperazin-1-yl)methyl)benzo[d]isoxazol-3-yl)dihydropyrimidine-2,4(1H,3H)-dione] |  |  |
| 0.448 | 78 | 22 | CN1CCC(Cc2ccc3onc(N4CCC(=O)NC4=O)c3c2)C1 (stereo not drawn) [Example 50, 1-(5-((1-methylpyrrolidin-3-yl)methyl)benzo[d]isoxazol-3-yl)dihydropyrimidine-2,4(1H,3H)-dione] |  |  |
| 0.21 | 88 | 12 | O=C1CCN(c2noc3ccc(CC4CCNCC4)cc23)C(=O)N1 [Example 1b, 1-(5-(piperidin-4-ylmethyl)benzo[d]isoxazol-3-yl)dihydropyrimidine-2,4(1H,3H)-dione hydrochloride] |  |  |
| 0.24 | 77 | 23 | CN1CCCC(Cc2ccc3onc(N4CCC(=O)NC4=O)c3c2)C1 (stereo not drawn) [Example 45, 1-(5-((1-methylpiperidin-3-yl)methyl)benzo[d]isoxazol-3-yl)dihydropyrimidine-2,4(1H,3H)-dione] |  |  |
| 0.16 | 85 | 15 | CC(C)(C)OC(=O)N1CCC(Cc2ccc3onc(N4CCC(=O)NC4=O)c3c2)CC1 [Example 1a, tert-butyl 4-((3-(2,4-dioxotetrahydropyrimidin-1(2H)-yl)benzo[d]isoxazol-5-yl)methyl)piperidine-1-carboxylate] |  |  |
| 0.115 | 78 | 22 | C[C@@H]1CN(C(=O)NC2CCCC2)CCN1Cc1ccc2onc(N3CCC(=O)NC3=O)c2c1 [Example 76, (R)—N-cyclopentyl-4-((3-(2,4-dioxotetrahydropyrimidin-1(2H)-yl)benzo[d]isoxazol-5-yl)methyl)-3-methylpiperazine-1-carboxamide] |  |  |

| Compound | DC50 [µM] | Dmax at 25 µM [%] | remaining activity at 25 µM [%] | % degradation of WIZ (100-Amax) [%] | WIZ Amax [%] |
| --- | --- | --- | --- | --- | --- |
| C[C@@H]1CN(C2CCC2)CCN1Cc1ccc2onc(N3CCC(=O)NC3=O)c2c1 [Example 77, (R)-1-(5-((4-cyclobutyl-2-methylpiperazin-1-yl)methyl)benzo[d]isoxazol-3-yl)dihydropyrimidine-2,4(1H,3H)-dione] | 0.022 | 82 | 18 |  |  |
| CS(=O)(=O)N1[C@@H]2CC[C@H]1CC(Cc1ccc3onc(N4CCC(=O)NC4=O)c3c1)C2 (stereo partly drawn) [Example 61, 1-(5-(((1R,5S)-8-(methylsulfonyl)-8-azabicyclo[3.2.1]octan-3-yl)methyl)benzo[d]isoxazol-3-yl)dihydropyrimidine-2,4(1H,3H)-dione] | 0.026 |  |  | 85 | 15 |
